Data: patent US9539298B2, “Lissencephaly therapeutic agent” (OSAKA CITY UNIVERSITY, priority 2010, dated 2017)

System: fibroblasts derived from human lissencephaly patient (Lis1 +/−)
Assay: Protein quantitative analysis (western blotting) in human fibroblasts
Format: cell-based
Conditions: final SNJ-1945 concentration=200μ, 2-hour culture, FIGS. 21 and 22
Method: In a clean bench, the cells were placed in a 6-well plate in an amount of 3×10^5 cells per well and cultured for 16 hours, thereby adhering the cells to each well. The culture medium in the well was discarded, and the SNJ-1945-containing culture solution (the culture solution containing SNJ-1945-dissolved in Dimethyl Sulfoxide (Sigma, D-5879); final SNJ-1945 concentration=200μ) was added in an amount of 2 ml/well, and a 2-hour culture was performed. As a control, another culture was performed using a culture medium containing the same amount of Dimethyl Sulfoxide (Sigma, D-5879).
After 2-hour culture by adding SNJ-1945, the cells were washed twice with PBS (−), 500 μl of PBS (−), was added and the cells were scraped with a cell scraper. The scraped cells were collected to a 1.5 ml tube to be subjected to centrifugation for 5 minutes at 4° C. and 15000 rpm; the supernatant was discarded, and a cell precipitate was obtained. […]
The absorbency of the cell extract was measured, and the protein amount of the entire solution was determined. […] The absorbency at 595 nm was measured using an ARVO Sx (PerkinElmer) 96-well plate reader, and the entire protein amount was determined.
Then, SDS-PAGE was conducted. […] Based on the protein amount determined by the Bradford method, the cells were loaded to each well of the gel in an amount of 10 μg/well. […]

COCCOCCOC(=O)N[C@@H](CC(C)C)C(=O)N[C@@H](Cc1ccccc1)C(=O)C(=O)NC1CC1 [compound 17, ((1S)-1-((((1S)-1-Benzyl-2,3-dioxo-3-(cyclopropylamino)propyl)amino)carbonyl)-3-methylbutyl)carbamic acid 5-methoxy-3-oxapentyl ester]
LIS1 amount (western blotting): recovered nearly to the extent of the LIS1 level
amount of cytoplasmatic dynein intermediate chain (western blotting): also increased
